In patent publication US8163768B2, “1,4-dihydropyridine-fused heterocycles, process for preparing the same, use and compositions containing them” (Aventis Pharma S.A.., priority 2005, dated 2012):
Counter-ions that a name gives are not always drawn.

Experiments:
[1] = target: T1, Aurora1 (Aurora-B) (Homo sapiens, UniProt Q96GD4); assay: Aurora 1 (Aurora B) kinase radioactivity scintillation assay using nickel chelate Flash plates; format: biochemical; conditions: 10 nM Aurora-B (co expressed with C3 fragment of INCEP), 500 nM NuMA substrate, 1 μM ATP with [33P] ATP, 5 mM MgCl2, 30 minutes, 37° C.
T1 construct: Aurora-B: the full length protein (His tagged in N-terminal) has been co expressed in SF9 cells; poly-histidine (N); made in house; host or cells: SF9 cells
In short: (§1)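 10 nM Aurora-B or Aurora-A with 500 nM NuMA-His substrate, 1 μM ATP plus [³³P]ATP, in 50 mM NaCl, 1 mM DTT and 5 mM (B) or 10 mM (A) MgCl2, 30 min at 37° C on nickel-chelate plates. Incorporated ³³P counted after washing, background-subtracted; IC50 fitted from % inhibition versus concentration.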

[2] = target: T2, Aurora2 (Aurora-A) (Homo sapiens, UniProt O14965); assay: Aurora 2 (Aurora A) kinase radioactivity scintillation assay using nickel chelate Flash plates; format: biochemical; conditions: 10 nM Aurora-A, 500 nM NuMA substrate, 1 μM ATP with [33P] ATP, 10 mM MgCl2, 30 minutes, 37° C.
T2 construct: Aurora-A: the full length recombinant protein including an N-terminal poly-histidine tail has been expressed in E. coli; poly-histidine (N); made in house; host or cells: E. coli
T2 sequence (O14965 1-403): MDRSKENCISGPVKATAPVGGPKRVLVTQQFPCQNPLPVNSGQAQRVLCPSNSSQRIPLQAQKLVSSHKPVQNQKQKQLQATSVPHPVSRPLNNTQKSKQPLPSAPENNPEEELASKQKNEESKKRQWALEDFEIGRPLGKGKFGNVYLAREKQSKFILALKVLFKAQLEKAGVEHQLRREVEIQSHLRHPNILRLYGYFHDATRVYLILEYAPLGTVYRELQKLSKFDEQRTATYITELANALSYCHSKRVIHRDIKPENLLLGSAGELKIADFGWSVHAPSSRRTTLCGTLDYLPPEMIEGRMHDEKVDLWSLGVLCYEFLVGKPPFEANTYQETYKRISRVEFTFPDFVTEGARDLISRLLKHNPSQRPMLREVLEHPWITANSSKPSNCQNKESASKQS
In short: as §1

T1 sequence (Q96GD4 whole entry, species assumed, the tested form may be a part): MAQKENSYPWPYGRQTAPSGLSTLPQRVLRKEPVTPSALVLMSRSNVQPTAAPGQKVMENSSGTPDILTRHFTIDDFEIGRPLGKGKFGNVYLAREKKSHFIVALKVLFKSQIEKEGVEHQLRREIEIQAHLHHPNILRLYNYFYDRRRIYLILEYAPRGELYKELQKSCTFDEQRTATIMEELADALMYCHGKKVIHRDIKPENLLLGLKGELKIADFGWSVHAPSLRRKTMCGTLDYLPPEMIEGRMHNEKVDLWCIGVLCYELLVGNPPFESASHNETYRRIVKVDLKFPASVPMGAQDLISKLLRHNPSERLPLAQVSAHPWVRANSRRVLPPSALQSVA
T1 sequence (Q9NQS7 821-918 partner limits assumed, species assumed): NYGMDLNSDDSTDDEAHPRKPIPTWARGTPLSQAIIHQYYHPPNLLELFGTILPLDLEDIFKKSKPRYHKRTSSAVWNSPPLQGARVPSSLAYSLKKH

| SMILES | IC50 [1] [nM] | melting point [°C] | IC50 [2] [nM] |
| --- | --- | --- | --- |
| CCOC(=O)c1[nH]cc2c1NC1=C(C(=O)CNC1)C2c1ccc(Sc2nc3cc(OC)ccc3[nH]2)o1 (centres unmarked) [Example 111, 9-[5-(6-Methoxy-1H-benzimidazol-2-ylsulfanyl)-furan-2-yl]-8-oxo-4,5,6,7,8,9-hexahydro-2H-pyrrolo[3,4-b][1,7]naphthyridine-3-carboxylic acid ethyl ester] | 501 | 248 | 1250 |
| CCOC(=O)c1[nH]cc2c1NC1=C(C(=O)CCC1)C2c1ccc(Sc2nc3cccnc3[nH]2)o1 (centres unmarked) [Example 112, 9-[5-(3H-Imidazo[4,5-b]pyridin-2-ylsulfanyl)-furan-2-yl]-8-oxo-4,5,6,7,8,9-hexahydro-2H-pyrrolo[3,4-b]quinoline-3-carboxylic acid ethyl ester] | 12 | 190 to 202 |  |
| CCOC(=O)c1[nH]cc2c1NC1=C(C(=O)CCC1)C2c1cnc(Sc2nc3ccccc3[nH]2)s1 (centres unmarked) [Example 118, 9-[2-(1H-Benzimidazol-2-ylsulfanyl)-thiazol-5-yl]-8-oxo-4,5,6,7,8,9-hexahydro-2H-pyrrolo[3,4-b]quinoline-3-carboxylic acid ethyl ester] |  | 194 |  |
| CCOC(=O)c1[nH]cc2c1NC1=C(C(=O)CN(C(=O)OC(C)(C)C)C1)C2c1ccc(Sc2nc3cc4c(cc3[nH]2)OC(F)(F)O4)o1 (centres unmarked) [Example 140] | 1660 |  | 3900 |
| CCOC(=O)c1[nH]cc2c1NC1=C(C(=O)CNC1)C2c1ccc(Sc2nc3cc4c(cc3[nH]2)OC(F)(F)O4)o1 (centres unmarked) [Example 141, 9-[5-(2,2-Difluoro-5H-[1,3]dioxolo[4′,5′:4,5]benzo[1,2-d]imidazol-6-ylsulfanyl)-furan-2-yl]-8-oxo-4,5,6,7,8,9-hexahydro-2H-pyrrolo[3,4-b]-1,7-naphthyridine-3-carboxylic acid ethyl ester hydrochloride] | 20 |  | 87 |
| O=C1CNCC2=C1C(c1ccc(Sc3nc4cc(F)cc(F)c4[nH]3)o1)c1c[nH]nc1N2 (centres unmarked) [Example 145, 4-[5-(5,7-Difluoro-1H-benzimidazol-2-ylsulfanyl)-furan-2-yl]-2,4,6,7,8,9-hexahydro-pyrazolo[3,4b]-1,7-naphthyridin-5-one hydrochloride] | 16 |  | 131 |
| CCOC(=O)c1[nH]cc2c1NC1=C(C(=O)CNC1)C2c1ccc(Sc2nc3cc(F)ccc3[nH]2)o1 (centres unmarked) [Example 149, 9-[5-(5-Fluoro-1H-benzimidazol-2-ylsulfanyl)-furan-2-yl]-8-oxo-4,5,6,7,8,9-hexahydro-2H-pyrrolo[3,4-b]-1,7-naphthyridine-3-carboxylic acid ethyl ester hydrochloride] | 11 |  | 55 |
| CCOC(=O)c1[nH]cc2c1NC1=C(C(=O)CCC1)C2c1ccc(Sc2nc3cc(OC(F)(F)F)ccc3[nH]2)o1 (centres unmarked) [Example 150, 8-Oxo-9-[5-(5-trifluoromethoxy-1H-benzimidazol-2-ylsulfanyl)-furan-2-yl]-4,5,6,7,8,9-hexahydro-2H-pyrrolo[3,4-b]quinoline-3-carboxylic acid ethyl ester] | 19 |  | 29 |
| CCOC(=O)c1[nH]cc2c1NC1=C(C(=O)CNC1)C2c1ccc(Sc2nc3cc(OC(F)(F)F)ccc3[nH]2)o1 (centres unmarked) [Example 151, 8-Oxo-9-[5-(5-trifluoromethoxy-1H-benzimidazol-2-ylsulfanyl)-furan-2-yl]-4,5,6,7,8,9-hexahydro-2H-pyrrolo[3,4-b][1,7]naphthyridine-3-carboxylic acid ethyl ester hydrochloride] | 14 |  | 60 |

The remaining compounds from weak to strong by IC50 [1], led by results:

| IC50 [1] [nM] | melting point [°C] | IC50 [2] [nM] | SMILES |
| --- | --- | --- | --- |
| 9 |  | 67 | CCOC(=O)c1[nH]cc2c1NC1=C(C(=O)CNC1)C2c1ccc(Sc2nc3cc(F)c(Cl)cc3[nH]2)o1 (centres unmarked) [Example 147, 9-[5-(6-Chloro-5-fluoro-1H-benzimidazol-2-ylsulfanyl)-furan-2-yl]-8-oxo-4,5,6,7,8,9-hexahydro-2H-pyrrolo[3,4-b]-1,7-naphthyridine-3-carboxylic acid ethyl ester hydrochloride] |
| 8 | 140 | 21 | CCOC(=O)c1[nH]cc2c1NC1=C(C(=O)CCC1)C2c1ccc(Sc2nc3cc(OC)ccc3[nH]2)o1 (centres unmarked) [Example 110, 9-[5-(5-Methoxy-1H-benzimidazol-2-ylsulfanyl)-furan-2-yl]-8-oxo-4,5,6,7,8,9-hexahydro-2H-pyrrolo[3,4-b]quinoline-3-carboxylic acid ethyl ester] |
| 8 | 190 to 196 | 48 | CCOC(=O)c1[nH]cc2c1NC1=C(C(=O)CNC1)C2c1ccc(Sc2nc3cc(F)c(F)cc3[nH]2)o1 (centres unmarked) [Example 115, 9-[5-(5,6-Difluoro-1H-benzimidazol-2-ylsulfanyl)-furan-2-yl]-8-oxo-4,5,6,7,8,9-hexahydro-2H-pyrrolo[3,4-b][1,7]naphthyridine-3-carboxylic acid ethyl ester] |
| 7 |  | 26 | CCOC(=O)c1[nH]cc2c1NC1=C(C(=O)CNC1)C2c1ccc(Sc2nc3cc(F)cc(F)c3[nH]2)o1 (centres unmarked) [Example 143, 9-[5-(5,7-Difluoro-1H-benzimidazol-2-ylsulfanyl)-furan-2-yl]-8-oxo-4,5,6,7,8,9-hexahydro-2H-pyrrolo[3,4-b]-1,7-naphthyridine-3-carboxylic acid ethyl ester hydrochloride] |
| 6 | 180 | 54 | CCOC(=O)c1[nH]cc2c1NC1=C(C(=O)CCC1)C2c1ccc(Sc2nc3cc(Cl)c(Cl)cc3[nH]2)o1 (centres unmarked) [Example 116, 9-[5-(5,6-Dichloro-1H-benzimidazol-2-ylsulfanyl)-furan-2-yl]-8-oxo-4,5,6,7,8,9-hexahydro-2H-pyrrolo[3,4-b]quinoline-3-carboxylic acid ethyl ester] |
| 6 |  | 28 | O=C1CCCC2=C1C(c1ccc(Sc3nc4cc(F)cc(F)c4[nH]3)o1)c1c[nH]nc1N2 (centres unmarked) [Example 144, 4-[5-(5,7-Difluoro-1H-benzimidazol-2-ylsulfanyl)-furan-2-yl]-2,4,6,7,8,9-hexahydro-pyrazolo[3,4-b]quinolin-5-one] |
| 6 |  | 41 | CCOC(=O)c1[nH]cc2c1NC1=C(C(=O)CCC1)C2c1ccc(Sc2nc3cc(F)c(Cl)cc3[nH]2)o1 (centres unmarked) [Example 146, 9-[5-(6-Chloro-5-fluoro-1H-benzimidazol-2-ylsulfanyl)-furan-2-yl]-8-oxo-4,5,6,7,8,9-hexahydro-2H-pyrrolo[3,4-b]quinoline-3-carboxylic acid ethyl ester] |
